Measured values taken from US20120010158A1, “TUMOR NECROSIS FACTOR INHIBITING PEPTIDES AND USES THEREOF” (PANACEA BIOTEC LTD., priority 2008, published 2012).
Residues, ends and D or L forms follow the SMILES beside them.

Columns and labels:
TNF-alpha [1] = molecular target: T1, TNF-alpha (Homo sapiens, UniProt P01375); test: Inhibition of TNF-alpha mediated cytotoxicity of L-929 cells (crystal violet)
Procedure: (§2) The peptides of the present invention were analyzed for inhibition of TNF-alpha induced cytotoxicity employing murine fibroblast cell line, L929. Addition of TNF-alpha to L929 cells (ATCC) induces cytotoxicity, which can be estimated by staining of viable cells with vital dyes like MTT (3-(4,5-Dimethylthiazol-2-yl)-2,5-diphenyltetrazolium bromide, a tetrazole) or crystal violet followed by extraction of dyes with methanol. […] The assay was performed as follows:
(§3) L929 cells (maintained in Dulbecco's modified Eagle's medium supplemented with 10% FCS) were seeded at a density of 2×10^5 cells/ml in a microtitre plates, and incubated with actinomycin D (ACT-D) at concentration of 1 μg/ml for 2 h at 37° C. and 5% CO2. TNF-α (100 pg/ml) preincubated with 75 μM of peptide solution at 37° C. was added to L929 cells and incubated overnight at 37° C., 5% CO2. […]
(§4) The live cells of test and positive control plates were then stained with 100 μl/well of 0.05% crystal violet and incubated at room temperature for 15 min., washed with PBS and kept for overnight drying at room temperature. Crystal violet was extracted from the cells by 100 μl per well of methanol and absorbance of extracted crystal violet dye was estimated at 595 nm. Percent inhibition in cytotoxicity was calculated by the following formula: […]

TNF-R1 = molecular target: T2, TNF-R1 (Homo sapiens, UniProt P19438); test: Binding of peptide to TNF-R1 on U937 cells by flow cytometry; conditions: untreated 83%
T2 construct: endogenous in cells; host or cells: U937
T2 sequence (P19438 30-455): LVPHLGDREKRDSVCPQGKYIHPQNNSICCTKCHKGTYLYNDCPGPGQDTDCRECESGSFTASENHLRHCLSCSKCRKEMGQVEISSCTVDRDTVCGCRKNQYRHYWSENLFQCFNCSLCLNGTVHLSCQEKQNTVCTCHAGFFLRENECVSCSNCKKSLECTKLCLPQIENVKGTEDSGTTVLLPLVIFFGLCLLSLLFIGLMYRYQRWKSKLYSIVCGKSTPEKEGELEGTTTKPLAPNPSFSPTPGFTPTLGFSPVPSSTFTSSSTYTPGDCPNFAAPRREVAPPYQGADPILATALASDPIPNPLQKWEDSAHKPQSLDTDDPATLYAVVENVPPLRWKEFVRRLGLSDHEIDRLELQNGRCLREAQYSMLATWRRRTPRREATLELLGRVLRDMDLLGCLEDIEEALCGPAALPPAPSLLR
Text: (§1) Flow cytometry assay technique was used to investigate binding of peptides to TNF-α or TNF-R1 employing U937 cells (a TNF-receptor expressing human leukemia cell line). Binding of peptide to TNF-α prevents TNF-α from interacting with TNF-R1 which can be analyzed by flow cytometry. Similarly, direct binding of peptide with TNF-R1 reduces percent TNF-R1 positive cells which can be analyzed by flow cytometry.
U937 cells were used to quantify the binding of peptides to TNF-R 1. TNF-alpha upon addition to U937 cells binds to its cognate receptor TNF-R1 on U937 cells leading to a reduction in percent cells positive for TNF-R1. TNF-alpha inhibiting peptides according to present invention bind to TNF-R1 and reduce the TNF-R1 positive cells after incubation of U937 cells with said peptides.
Peptide of Sequence ID-6 was analyzed for binding of peptide to TNF-R1 on U937 cells using flow cytometry. […] After two washes in binding buffer, the cells were analyzed using FACS Calibur flow cytometer (Becton Dickinson). The gates were set on the live cell population, and the degree of binding to TNF-R1 was calculated on the basis of percent cells positive for TNF-RI expression.

[2] = test system: collagen induced arthritis; test: Murine model of collagen induced arthritis; type: in vivo, C57BL/6 mice; conditions: for anticollagen IgG1/IgG2a ratio after therapy: vs PBS treated arthritic animals, FIG. 8b
Procedure: Male C57BL/6 mice obtained from animal house at Lalru, Panacea Biotec were used to develop a murine model of rheumatoid arthritis. Mice were intradermally immunized with 150 μg of chicken type-II collagen (Sigma) emulsified in complete Freunds adjuvant (CFA) (Sigma). On day 17 after primary immunization, a booster immunization with 100 μg of chick type II collagen in incomplete Freunds adjuvant was administered to animals (Ethan M Shevach, Curr. Prot. Immunol. 2002: 15.0.1-15.0.6; Inglis J et al, 2008 Nature Protocols, 4:612-618). Increase in paw thickness as compared to controls (healthy, male C57BL/6 mice) and presence of anti-collagen IgG antibodies were the parameters to assess development of arthritis. Paw thickness in animals was measured using digital Vernier Calipers and anticollagen antibodies were measured in the mouse serum on day 35 after immunization.
Chicken type-II collagen (sigma) was coated onto ELISA plates at 1 μg/ml in PBS and incubated overnight at 4° C. After three washes in PBS-0.05% Tween 20 (PBS-T), serum from collagen, vehicle (CFA) and PBS (control) injected mice was added to separate wells at dilution of 1:100. Plate was incubated at room temperature for 2 h. After 5 washes in PBS-T rabbit antimouse IgG HRP (Bethyl Laboratories) was added to wells at 1:10000 dilutions and incubated at room temperature for 45 min. After washing the plate in PBS-T, OPD (ortho-phenyl diamine) as substrate was added and colour development observed. Colour development was stopped by 2N HCl. Absorbance was recorded at 490 nm (Ethan M Shevach, Cum Prot. Immunol. 2002: 15.0.1-15.0.6).
Determination of optimum dose and schedule of peptide with Sequence ID-6 was performed in a murine model of collagen induced arthritis (as prepared above). Arthritic mice were randomized according to paw thickness and divided into separate groups of 4-5 animals for intravenous administration of peptide sequence ID-6.
Efficacy of peptide with sequence ID-6 and sequence ID-2 was compared with Etanercept (Marketed and approved TNF-alpha inhibiting agent with the brand name “Enbrel”) using a murine model of collagen induced arthritis (As prepared and described above). Peptides of Sequence ID-6, Sequence ID-2 and Etanercept were intravenously administered to the arthritic mice at a dose of 5 mg/kg three times in first week followed by once every week for three weeks.
Development of disease in collagen induced arthritis is accompanied by an increase in Th1 or proinflammatory response. IgG1/IgG2a levels were measured to determine that whether treatment with the peptides of the present invention and Etanercept improved clinical disease in murine model by decreasing Th1 response. Lower IgG1/IgG2a ratio would indicate down regulation of Th1 or proinflammatory response.

[3] = test system: adjuvant induced arthritis; test: Rat model of adjuvant induced arthritis; type: in vivo, Wistar rats; conditions: 2.5 mg/kg once every day for 6 days, then 3 doses every alternate day; for clinical score: p<0.05, score 0-4, FIG. 9b; for paw thickness: vs PBS treated arthritic rats, FIG. 9a
Procedure: In vivo efficacy of peptide with sequence ID-6 was evaluated in a rat model of “adjuvant” induced arthritis. This model is widely used for developing and testing anti-inflammatory drugs. Adjuvant arthritis (AA) in rats mimics features of inflammatory arthritis in humans (Pearson et al, 1956, Proc. Soc. Exp. Biol. Med. 112:95-10). AA was induced in male Wistar rats by intradermal immunization with 150 μg of complete freunds adjuvant followed by a booster immunization at day 7 with incomplete freunds adjuvant. Arthritis was evaluated in animals by clinical scoring and measurement of paw and joint thickness using digital vernier calipers. The clinical score was assigned according to following criteria: 0=no erythema or swelling 1=slight erythema or swelling of one of toes or fingers 2=erythema and swelling of more than one toe or finger 3=erythema and swelling of the ankle or wrist 4=complete erythema and swelling of toes or fingers and ankle or wrist and inability to bend the ankle or wrist. Arthritic rats were administered with peptide Sequence ID-6 at a dose of 2.5 mg/kg, once every day for 6 days in the first week followed by 3 doses every alternate day in the second week. Another group of arthritic animals received Etanercept (Et) in similar manner.

TNF-alpha [4] = molecular target: T1, TNF-alpha
Procedure: as §2, §3, §4

TNF-alpha [5] = molecular target: T1, TNF-alpha; test: Inhibition of TNF-α binding to its receptor TNF-R1 on U937 cells (flow cytometry); design: host or cells: U937 cells carry the partner receptor endogenously; conditions: U937 cells with complex of peptide and TNF-alpha (5 ng); untreated 78±1%, TNF-alpha alone 32±10%
Text: as §1
TNF-alpha binds to its cognate receptor TNF-R1 on U937 cells (ATCC) leading to a reduction in percent cells positive for TNF-R1. TNF-alpha binding peptides bind to TNF-alpha and prevent the interaction of TNF-alpha with TNF-R1. The percent cells positive for TNF-R1 can be quantified by staining with fluorochrome conjugated anti-TNF-R1 antibody.
Peptides of Sequence ID-2 and Sequence ID-6 were analyzed for inhibition of TNF-alpha binding to its receptor TNF-R1 on U937 cells. Inhibition of TNF-alpha binding to TNF-RI on U937 cells by peptides with sequence ID-2 or sequence ID-6 was estimated, using fluorescent activated cell sorter (FACS, FACSCALIBUR, Becton Dickinson, USA). […]

[6] = 5 mg/kg i.v. three times in first week then once every week for three weeks, pre vs post treatment, Example 5(d), FIG. 8a
[7] = 5 mg/kg i.v. three times in first week then once every week for three weeks

T1 sequence (P01375 77-233 limits assumed, species assumed): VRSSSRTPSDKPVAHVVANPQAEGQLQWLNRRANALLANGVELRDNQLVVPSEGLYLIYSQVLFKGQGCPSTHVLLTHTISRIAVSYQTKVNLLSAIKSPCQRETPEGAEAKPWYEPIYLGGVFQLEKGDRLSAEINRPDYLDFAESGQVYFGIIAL

Compound	paw thickness [2, 6]	anticollagen IgG1/IgG2a ratio after therapy [2, 7]	clinical score [3]	paw thickness [3]	other results
CC(C)C[C@@H]1NC(=O)[C@H](Cc2ccc(O)cc2)NC(=O)[C@H](CCC(N)=O)NC(=O)[C@H](CO)NC(=O)[C@H](Cc2c[nH]c3ccccc23)NC(=O)[C@@H](NC(=O)[C@@H](N)Cc2ccc(O)cc2)CSSC[C@@H](C(=O)N[C@@H](Cc2ccc(O)cc2)C(=O)O)NC1=O [Cyclic WSQYL, cy Trp-Ser-Gln-Tyr-Leu CY]	–	–	–	–	inhibition at 75 µM (TNF-alpha [1]): 60 ± 10%
NC(=O)C[C@H](NC(=O)[C@@H](N)CO)C(=O)N[C@@H](Cc1ccc(O)cc1)C(=O)O [Sequence ID-6, Ser--Asn--Tyr] (H-Ser-Asn-Tyr-OH; N-terminus assumed)	significant lowering of paw thickness	lower ratio of IgG1/IgG2a	significant lowering of clinical score	Lowering of paw thickness	percent cells positive for TNF-R1 (TNF-R1; U937 cells incubated with peptide 250 μM): 32%; paw thickness ([2]; 5 mg/kg i.v. thrice weekly followed by once every week for 3 wks, Example 5(c), FIG. 7): significant reduction of paw thickness; paw thickness ([2]; 7.5 mg/kg i.v. once every week for 4 wks, Example 5(c), FIG. 7): insignificant lowering of paw thickness; ability to inhibit TNF-alpha induced cytotoxicity compared with Etanercept (TNF-alpha [4]): comparable ability; percent cells positive for TNF-R1 (TNF-alpha [5]): 57±8%
Etanercept [reference compound]	significant lowering of paw thickness	lower ratio of IgG1/IgG2a	significant lowering of clinical score	Lowering of paw thickness	–
TNF-alpha	–	–	–	–	percent cells positive for TNF-R1 (TNF-R1; U937 cells incubated with recombinant TNF-alpha 10 ng): 31.6%
